Source: patent publication US8957184B2, “Pro-apoptotic peptides” (priority 2009, dated 2015)
Where two headings read alike, the source gives them in different places. Ends that are not written are not given here.

Key:
[1] = test system: Exponentially proliferating cells; assay: Intracellular detection of biotinylated peptides (cell penetration); type: cell-based
Protocol: Exponentially proliferating cells were rinsed twice in PBS. A total of 6×10^4 cells per well were seeded in 24 well plates and incubated in RPMI-1640 at 37° C. After 24 h, biotinylated peptides were added and incubated with cells (4 h) for intracellular analysis. Cells were rinsed in PBS and fixed with 0.1% paraformaldehyde (PFA) for 10 min before adding […] of streptavidin-peroxidase. Then, cells were rinsed with PBS, incubated with di-amino-benzidyne (DAB) for 5 min, washed in PBS and analyzed by microscopy.

[2] = test system: primary B cells from CLL patients; assay: Effect of DPT-C9h on PBMC: B cells from CLL patients (annexin staining); type: cell-based, human
Protocol: PBMC (Peripheral Blood Mononuclear Cell) were isolated by Ficoll gradient centrifugation from healthy donors and CLL patients, cultured in complete RPMI medium and treated with 150 μM of DPT-C9h peptide. Upon 3 h of treatment, cells were washed and resuspended in complete RPMI medium. Apoptosis was estimated 6 h after washing using Annexin staining and specific markers for B cells (FIG. 4A), and for T, NK and monocytes (FIG. 4B). Apoptosis is represented as the percentage compared to cells treated with […].
PBMC were isolated by Ficoll gradient centrifugation from healthy donors and three different types of CLL patients: treated, non-treated and resistant. Cells were maintained in complete RPMI medium, treated with 150 μM of DPT-C9h peptide for 3 h and then washed and transferred to complete medium. Samples were analyzed at different times after washing. Apoptosis was estimated by annexin staining. The different populations were selected using specific markers. Apoptosis is represented as percentage compared to control non treated cells.
Mononuclear cells isolated from peripheral blood (PBMC) were prepared by Ficoll gradient centrifugation.
A total of 2.5×10^5 cells were washed with ice-cold PBS, diluted in ice-cold binding buffer and stained with annexin and propidium iodide (PI). Samples were maintained on ice for 10 min in the dark and then analyzed by flow cytometry.

[3] = test system: bone marrow B cells from CLL patients; assay: Effect of DPT-C9h on bone marrow cells, CLL patients; type: cell-based, human

| Compound | internalization of peptide ([1]; data not shown) | also measured |
| --- | --- | --- |
| VKKKKIKREIKIYIETLDGILEQWARSEDL [DPT-C9, VKKKKIKREIKI-YIETLDGILEQWARSEDL] | – | internalization of peptide [1]: internalized |
| VKKKKIKREIKILDESRAWQELIGDLTEIY [DPT-C9r, VKKKKIKREIKI-LDESRAWQELIGDLTEIY] | internalized | – |
| VKKKKIKREIKI [DPT-sh1, VKKKKIKREIKI] | internalized | – |
| YIETLDGILEQWARSEDL [C9, YIETLDGILEQWARSEDL] | not internalized | – |
| VKKKKIKREIKIYVETLDGIFEQWAHSEDL [DPT-C9h, VKKKKIKREIKI-YVETLDGIFEQWAHSEDL] | – | penetrating properties [2]: penetrating; cell penetrating activity [3]: cell penetrating |
| N=C(N)NCCC[C@H](NC(=O)[C@H](CCCNC(=N)N)NC(=O)[C@H](CCCNC(=N)N)NC(=O)[C@H](CCC(N)=O)NC(=O)[C@H](CCCNC(=N)N)NC(=O)[C@H](CCCNC(=N)N)NC(=O)[C@H](CCCCN)NC(=O)[C@H](CCCCN)NC(=O)[C@H](CCCNC(=N)N)NC(=O)CNC(=O)[C@@H](N)Cc1ccc(O)cc1)C(=O)O [Tat, YGRKKRRQRRR] | internalized | – |
